Measurements as given in patent US9499550B2 (BRISTOL-MYERS SQUIBB COMPANY, priority 2012, dated 2016).
Like-named read-outs stand apart in the source and are kept apart here.

How the values were obtained:
[1] = system: HCV genotype 1a (H77 strain) replicon in HUH-7 cells; assay: HCV replicon luciferase reporter assay, genotype 1a; assay type: cell-based; settings: Hepatitis C virus, Huh-7, 72 h, HCV genotype 1a replicon luciferase, 3 days incubation, read-out: LE_1a (EC50, range)
Summary of the method: (§1)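 Replicon inhibition for both genotypes was measured as Renilla luciferase signal (EnduRen, 7.5 μM final, 2 h) after 3-day, 37° C exposure of replicon-bearing HUH-7 cells in 4% FCS DMEM, 0.5% DMSO. The 1b construct carries S1179I; the 1a H77 construct carries P1496L and S2204I. Twenty-point, 3-fold dilutions were fitted four-parametrically for EC50, and CC50 was taken from multiplexed Cell Titer-Blue.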

[2] = system: HCV genotype 1b (Con1) replicon in HUH-7 cells; assay: HCV replicon luciferase reporter assay, genotype 1b; assay type: cell-based; settings: Hepatitis C virus, Huh-7, 72 h, HCV genotype 1b replicon luciferase, 3 days incubation, read-out: LE_1b (EC50, range)
Summary of the method: as §1

SMILES	EC50 ([1]; GETYPE1A)	EC50 ([2]; GETYPE1B)	EC50 [1]	EC50 [2]
COc1ccc2c(O[C@@H]3C[C@H]4C(=O)N[C@]5(C(=O)NS(=O)(=O)C6(C)CC6)C[C@H]5/C=C\CC[C@@H](C)C[C@@H](C)[C@H](NC(=O)OC(C)(C)C)C(=O)N4C3)ncc(N3CCN(CC(F)F)CC3)c2c1 [Compound 4173]	< 5.46 nM	< 5.46 nM	–	–
CC[C@@H]1C[C@H](C)CC/C=C\[C@@H]2C[C@@]2(C(=O)NS(=O)(=O)C2(C)CC2)NC(=O)[C@@H]2C[C@@H](Oc3nccc4cc(OC)c(F)cc34)CN2C(=O)[C@H]1NC(=O)OC(C)(C)C [Compound 4175, tert-butyl (2R,6S,7R,9R,13aS,14aR,16aS,Z)-7-ethyl-2-(7-fluoro-6-methoxyisoquinolin-1-yloxy)-9-methyl-14a-(1-methylcyclopropylsulfonylcarbamoyl)-5,16-dioxo-1,2,3,5,6,7,8,9,10,11,13a,14,14a,15,16,16a-hexadecahydrocyclopropa[e]pyrrolo[1,2-a][1,4]diazacyclopentadecin-6-ylcarbamate]	–	–	< 5.46 nM	< 5.46 nM
CC[C@@H]1C[C@H](C)CC/C=C\[C@@H]2C[C@@]2(C(=O)NS(=O)(=O)C2(C)CC2)NC(=O)[C@@H]2C[C@@H](Oc3nccc4cc(OC)ccc34)CN2C(=O)[C@H]1NC(=O)O[C@H](C)C(F)(F)F [Compound 4177, (R)-1,1,1-trifluoropropan-2-yl (2R,6S,7R,9R,13aS,14aR,16aS,Z)-7-ethyl-2-(6-methoxyisoquinolin-1-yloxy)-9-methyl-14a-(1-methylcyclopropylsulfonylcarbamoyl)-5,16-dioxo-1,2,3,5,6,7,8,9,10,11,13a,14,14a,15,16,16a-hexadecahydrocyclopropa[e]pyrrolo[1,2-a][1,4]diazacyclopentadecin-6-ylcarbamate]	–	–	< 5.46 nM	< 5.46 nM
COc1ccc2c(O[C@@H]3C[C@H]4C(=O)N[C@]5(C(=O)NS(=O)(=O)C6(C)CC6)C[C@H]5/C=C\CC[C@@H](C)C[C@@H](C)[C@H](NC(=O)OC(C)(C)C(F)(F)F)C(=O)N4C3)ncc(-c3ccc(OC)nc3)c2c1 [Compound 4178]	< 5.46 nM	< 5.46 nM	–	–
C[C@@H]1CC/C=C\[C@@H]2C[C@@]2(C(=O)NS(=O)(=O)C2(C)CC2)NC(=O)[C@@H]2C[C@@H](Oc3cnc4ccc(F)cc4n3)CN2C(=O)[C@@H](NC(=O)OC(C)(C)C)[C@H](C)C1 [Compound 4179, tert-butyl (2R,6S,7R,9R,13aS,14aR,16aS,Z)-2-(7-fluoroquinoxalin-2-yloxy)-7,9-dimethyl-14a-(1-methylcyclopropylsulfonylcarbamoyl)-5,16-dioxo-1,2,3,5,6,7,8,9,10,11,13a,14,14a,15,16,16a-hexadecahydrocyclopropa[e]pyrrolo[1,2-a][1,4]diazacyclopentadecin-6-ylcarbamate]	–	–	< 5.46 nM	< 5.46 nM
CCOc1cnc(O[C@@H]2C[C@H]3C(=O)N[C@]4(C(=O)NS(=O)(=O)C5(C)CC5)C[C@H]4/C=C\CC[C@@H](C)C[C@@H](CC)[C@H](NC(=O)OC(C)(C)C)C(=O)N3C2)c2ccccc12 [Compound 4180, tert-butyl (2R,6S,7R,9R,13aS,14aR,16aS,Z)-2-(4-ethoxyisoquinolin-1-yloxy)-7-ethyl-9-methyl-14a-(1-methylcyclopropylsulfonylcarbamoyl)-5,16-dioxo-1,2,3,5,6,7,8,9,10,11,13a,14,14a,15,16,16a-hexadecahydrocyclopropa[e]pyrrolo[1,2-a][1,4]diazacyclopentadecin-6-ylcarbamate]	–	–	< 5.46 nM	< 5.46 nM
CC[C@@H]1C[C@H](C)CC/C=C\[C@@H]2C[C@@]2(C(=O)NS(=O)(=O)C2(C)CC2)NC(=O)[C@@H]2C[C@@H](Oc3ncc(OC)c4ccc(F)cc34)CN2C(=O)[C@H]1NC(=O)OC(C)(C)C [Compound 4181, tert-butyl (2R,6S,7R,9R,13aS,14aR,16aS,Z)-7-ethyl-2-(7-fluoro-4-methoxyisoquinolin-1-yloxy)-9-methyl-14a-(1-methylcyclopropylsulfonylcarbamoyl)-5,16-dioxo-1,2,3,5,6,7,8,9,10,11,13a,14,14a,15,16,16a-hexadecahydrocyclopropa[e]pyrrolo[1,2-a][1,4]diazacyclopentadecin-6-ylcarbamate]	–	–	< 5.46 nM	< 5.46 nM
CC[C@@H]1C[C@H](C)CC/C=C\[C@@H]2C[C@@]2(C(=O)NS(=O)(=O)C2(C)CC2)NC(=O)[C@@H]2C[C@@H](Oc3nccc4cc(OC)ccc34)CN2C(=O)[C@H]1NC(=O)OC(C)(C)C(F)(F)F [Compound 4182]	< 5.46 nM	< 5.46 nM	–	–
COc1ccc2nc(C(F)(F)F)c(O[C@@H]3C[C@H]4C(=O)N[C@]5(C(=O)NS(=O)(=O)C6(C)CC6)C[C@H]5/C=C\CC[C@@H](C)C[C@@H](C)[C@H](NC(=O)OC(C)(C)C)C(=O)N4C3)nc2c1 [Compound 4183, tert-butyl (2R,6S,7R,9R,13aS,14aR,16aS,Z)-2-(7-methoxy-3-(trifluoromethyl)quinoxalin-2-yloxy)-7,9-dimethyl-14a-(1-methylcyclopropylsulfonylcarbamoyl)-5,16-dioxo-1,2,3,5,6,7,8,9,10,11,13a,14,14a,15,16,16a-hexadecahydrocyclopropa[e]pyrrolo[1,2-a][1,4]diazacyclopentadecin-6-ylcarbamate]	–	–	< 5.46 nM	< 5.46 nM
CCOc1cnc(O[C@@H]2C[C@H]3C(=O)N[C@]4(C(=O)NS(=O)(=O)C5CC5)C[C@H]4/C=C\CC[C@@H](C)C[C@@H](CC)[C@H](NC(=O)OC(C)(C)C(F)(F)F)C(=O)N3C2)c2ccccc12 [Compound 4185]	< 5.46 nM	< 5.46 nM	–	–
CC[C@@H]1C[C@H](C)CC/C=C\[C@@H]2C[C@@]2(C(=O)NS(=O)(=O)C2(C)CC2)NC(=O)[C@@H]2C[C@@H](Oc3ncc(OC)c4ccc(Cl)cc34)CN2C(=O)[C@H]1NC(=O)OC(C)(C)C(F)(F)F [Compound 4188]	< 5.46 nM	< 5.46 nM	–	–
CC[C@@H]1C[C@H](C)CC/C=C\[C@@H]2C[C@@]2(C(=O)NS(=O)(=O)C2CC2)NC(=O)[C@@H]2C[C@@H](Oc3ncnc4cc(OC)ccc34)CN2C(=O)[C@H]1NC(=O)OC(C)(C)C(F)(F)F [Compound 4189]	< 5.46 nM	< 5.46 nM	–	–
CC[C@@H]1C[C@H](C)CC/C=C\[C@@H]2C[C@@]2(C(=O)NS(=O)(=O)C2CC2)NC(=O)[C@@H]2C[C@@H](Oc3ncc(OC)c4ccc(Cl)cc34)CN2C(=O)[C@H]1NC(=O)OC(C)(C)C(F)(F)F [Compound 4190]	< 5.46 nM	< 5.46 nM	–	–
CC[C@@H]1C[C@H](C)CC/C=C\[C@@H]2C[C@@]2(C(=O)NS(=O)(=O)C2(CF)CC2)NC(=O)[C@@H]2C[C@@H](Oc3nccc4cc(OC)c(F)cc34)CN2C(=O)[C@H]1NC(=O)OC(C)(C)C(F)(F)F [Compound 4193]	< 5.46 nM	< 5.46 nM	–	–
COc1ccc2nc(C(F)(F)F)c(O[C@@H]3C[C@H]4C(=O)N[C@]5(C(=O)NS(=O)(=O)C6(C)CC6)C[C@H]5/C=C\CC[C@@H](C)C[C@@H](C)[C@H](NC(=O)OC(C)(C)C(F)(F)F)C(=O)N4C3)nc2c1 [Compound 4195]	< 5.46 nM	< 5.46 nM	–	–
CC[C@@H]1C[C@H](C)CC/C=C\[C@@H]2C[C@@]2(C(=O)NS(=O)(=O)C2(C)CC2)NC(=O)[C@@H]2C[C@@H](Oc3ncc(OC)c4cc(OC)ccc34)CN2C(=O)[C@H]1NC(=O)OC(C)(C)C [Compound 4196, tert-butyl (2R,6S,7R,9R,13aS,14aR,16aS,Z)-2-(4,6-dimethoxyisoquinolin-1-yloxy)-7-ethyl-9-methyl-14a-(1-methylcyclopropylsulfonylcarbamoyl)-5,16-dioxo-1,2,3,5,6,7,8,9,10,11,13a,14,14a,15,16,16a-hexadecahydrocyclopropa[e]pyrrolo[1,2-a][1,4]diazacyclopentadecin-6-ylcarbamate]	–	–	< 5.46 nM	< 5.46 nM
CC[C@@H]1C[C@H](C)CC/C=C\[C@@H]2C[C@@]2(C(=O)NS(=O)(=O)C2(C)CC2)NC(=O)[C@@H]2C[C@@H](Oc3ncc(OC)c4cc(OC)ccc34)CN2C(=O)[C@H]1NC(=O)OC(C)(C)C(F)(F)F [Compound 4197]	< 5.46 nM	< 5.46 nM	–	–
COc1ccc2c(Cl)cc(O[C@@H]3C[C@H]4C(=O)N[C@]5(C(=O)NS(=O)(=O)C6(CF)CC6)C[C@H]5/C=C\CC[C@@H](C)C[C@@H](C)[C@H](NC(=O)OC(C)(C)C(F)(F)F)C(=O)N4C3)nc2c1 [Compound 4200]	4.82 to 103 nM	< 5.46 nM	–	–
CC[C@@H]1C[C@H](C)CC/C=C\[C@@H]2C[C@@]2(C(=O)NS(=O)(=O)C2(C)CC2)NC(=O)[C@@H]2C[C@@H](Oc3cnc4ccc(OC)cc4c3)CN2C(=O)[C@H]1NC(=O)OC(C)(C)C [Compound 4201, tert-butyl (2R,6S,7R,9R,13aS,14aR,16aS,Z)-7-ethyl-2-(6-methoxyquinolin-3-yloxy)-9-methyl-14a-(1-methylcyclopropylsulfonylcarbamoyl)-5,16-dioxo-1,2,3,5,6,7,8,9,10,11,13a,14,14a,15,16,16a-hexadecahydrocyclopropa[e]pyrrolo[1,2-a][1,4]diazacyclopentadecin-6-ylcarbamate]	–	–	< 5.46 nM	< 5.46 nM
CC[C@@H]1C[C@H](C)CC/C=C\[C@@H]2C[C@@]2(C(=O)NS(=O)(=O)C2(CF)CC2)NC(=O)[C@@H]2C[C@@H](Oc3nccc4cc(OC)ccc34)CN2C(=O)[C@H]1NC(=O)OC(C)(C)C [Compound 4204, tert-butyl (2R,6S,7R,9R,13aS,14aR,16aS,Z)-7-ethyl-14a-(1-(fluoromethyl)cyclopropylsulfonylcarbamoyl)-2-(6-methoxyisoquinolin-1-yloxy)-9-methyl-5,16-dioxo-1,2,3,5,6,7,8,9,10,11,13a,14,14a,15,16,16a-hexadecahydrocyclopropa[e]pyrrolo[1,2-a][1,4]diazacyclopentadecin-6-ylcarbamate]	–	–	< 5.46 nM	< 5.46 nM
